Measurements taken from patent US6737383B1, “Herbicidal oxadiazolidines” (priority 1999, dated 2004).

How the values were obtained:
littleseed canarygrass = test: Test E littleseed canarygrass; assay type: in vivo, Phalaris minor; settings: Postemergence
Method: (§1) Compounds evaluated in this test were formulated in a non-phytotoxic solvent mixture which included a surfactant and applied to plants that were in the 1- to 4-leaf stage (postemergence application). A mixture of sandy loam soil and greenhouse potting mix in a 60:40 ratio was used for the postemergence test.
(§2) Plantings of these crops and weed species were adjusted to produce plants of appropriate size for the postemergence test. All plant species were grown using normal greenhouse practices. Crop and weed species include annual bluegrass (Poa annua), blackgrass (Alopecurus myosuroides), black nightshade (Solanum nigra), chickweed (Stellaria media), common poppy (Papaver rhoeas), deadnettle (Lamium amplexicaule), downy brome (Bromus tectorum), field violet (Viola arvensis), galium (Galium aparine), green foxtail (Setaria viridis), Italian ryegrass (Lolium multiflorum), jointed goatgrass (Aegilops cylindrica), kochia (Kochia scoparia), lambsquarters (Chenopodium album), littleseed canarygrass (Phalaris minor), rape (Brassica napus), redroot pigweed (Amaranthus retroflexus), Russian thistle (Salsola kali), scentless chamomile (Matricaria inodora), spring barley (Hordeum vulgare), sugar beet (Beta vulgaris), sunflower (Helianthus annuus), ivyleaf speedwell (Veronica hederaefolia), spring wheat (Triticum aestivum), winter wheat (Triticum aestivum), wild buckwheat (Polygonum convolvulus), wild mustard (Sinapis arvensis), wild oat (Avena fatua), windgrass (Apera spica-venti) and winter barley (Hordeum vulgare).
(§3) Treated plants and untreated controls were maintained in a greenhouse for approximately 21 to 28 days, after which all treated plants were compared to untreated controls and visually evaluated. […] A dash response (-) means no test result.

purple nutsedge = test: Test C postemergence purple nutsedge; assay type: in vivo, Cyperus rotundus; settings: 0 to 100 scale, 0 no effect, 100 complete control
Method: as §1, with “grown for various periods of time before treatment” for “in the 1- to 4-leaf stage”
(§4) Plantings of these crops and weed species were adjusted to produce plants of appropriate size for the postemergence test. All plant species were grown using normal greenhouse practices. Crop and weed species include arrowleaf sida (Sida rhombifolia), barnyardgrass (Echinochloa crus-galli), cocklebur (Xanthium strumarium), common ragweed (Ambrosia elatior), corn (Zea mays), cotton (Gossypium hirsutum), eastern black nightshade (Solanum ptycanthum), fall panicum (Panicum dichotomiflorum), field bindweed (Convolvulus arvensis), giant foxtail (Setaria faberii), hairy beggarticks (Bidens pilosa), ivyleaf morningglory (Ipomoea hederacea), johnsongrass (Sorghum halepense), ladysthumb smartweed (Polygonum persicaria), lambsquarters (Chenopodium album), large crabgrass (Digitaria sanguinalis), purple nutsedge (Cyperus rotundus), redroot pigweed (Amaranthus retroflexus), soybean (Glycine max), surinam grass (Brachiaria decumbens), velvetleaf (Abutilon theophrasti) and wild poinsettia (Euphorbia heterophylla).
(§5) Treated plants and untreated controls were maintained in a greenhouse for approximately 14, to 21 days, after which all treated plants were compared to untreated controls and visually evaluated. Plant response ratings, summarized in Table C, were based upon a 0 to 100 scale where 0 was no effect and 100 was complete control. A dash response (−) means no test result.

common poppy = test: Test E common poppy; assay type: in vivo, Papaver rhoeas; settings: Postemergence; for Plant response rating, Comnion poppy: Rate 125 g/ha
Method: as §1, §2, §3

lambsquarters [1] = test: Test C postemergence lambsquarters; assay type: in vivo, Chenopodium album; settings: 0 to 100 scale, 0 no effect, 100 complete control
Method: as §1, with “grown for various periods of time before treatment” for “in the 1- to 4-leaf stage”
as §4, §5

redroot pigweed = test: Test E redroot pigweed; assay type: in vivo, Amaranthus retroflexus; settings: Preemergence
deadnettle = test: Test E deadnettle; assay type: in vivo, Lamium amplexicaule; settings: Preemergence
sugar beet = test: Test E sugar beet; assay type: in vivo, Beta vulgaris; settings: Postemergence
Method: as §1, §2, §3

windgrass [2] = test: Test E windgrass; assay type: in vivo, Apera spica-venti; settings: Postemergence, Rate 62 g/ha; 0 to 100 scale
Outline: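 For postemergence, sowings are timed so plants reach the 1- to 4-leaf stage at spraying. Test compound is applied in a surfactant-containing solvent mixture that is non-phytotoxic. Response is judged by eye against untreated controls after approximately 21 to 28 days.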

scentless chamomile = test: Test E scentless chamomile; assay type: in vivo, Matricaria inodora; settings: Postemergence
Method: as §1, §2, §3

wild poinsettia = test: Test C postemergence wild poinsettia; assay type: in vivo, Euphorbia heterophylla; settings: 0 to 100 scale, 0 no effect, 100 complete control
Outline: (§6)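 Postemergence spray; formulation = non-phytotoxic solvent + surfactant; soil 60:40 sandy loam:greenhouse potting mix; greenhouse, ~14–21 d; visual rating vs untreated, 0–100 (100 = complete control).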

lambsquarters [3] = test: Test E lambsquarters; assay type: in vivo, Chenopodium album; settings: Postemergence
Method: as §1, §2, §3

fall panicum = test: Test C postemergence fall panicum; assay type: in vivo, Panicum dichotomiflorum; settings: 0 to 100 scale, 0 no effect, 100 complete control
Outline: as §6

windgrass [4] = test: Test E windgrass; assay type: in vivo, Apera spica-venti; settings: Preemergence
surinam grass = test: Test C postemergence surinam grass; assay type: in vivo, Brachiaria decumbens; settings: 0 to 100 scale, 0 no effect, 100 complete control
Method: as §1, with “grown for various periods of time before treatment” for “in the 1- to 4-leaf stage”
as §4, §5

velvetleaf = test: Test A velvetleaf; assay type: in vivo, Abutilon theophrasti; settings: 0 to 10 scale where 0 is no effect and 10 is complete control
Outline: (§7)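 Ratings came from visual comparison with untreated plants about eleven days after treatment, scored 0 for no effect through 10 for complete control. Both soil-drench preemergence and runoff-spray postemergence applications were made at the same time.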

morningglory = test: Test A morningglory; assay type: in vivo, Ipomoea spp.; settings: 0 to 10 scale where 0 is no effect and 10 is complete control
Outline: as §7

[5] = Rate 250 g/ha, 0 to 100 scale (0 no effect, 100 complete control)
[6] = Rate 62 g/ha, 0 to 100 scale, 0 no effect, 100 complete control
[7] = Rate 125 g/ha, 0 to 100 scale (0 no effect, 100 complete control)
[8] = Rate 500 g/ha, 0 to 100 scale, 0 no effect, 100 complete control
[9] = Rate 500 g/ha, 0 to 100 scale where 0 is no effect and 100 is complete control

CCn1c(=O)on(C(=O)N(c2ccc(F)cc2)C(C)C)c1=O [Compound 107]
Plant response rating, LS canarygrass (littleseed canarygrass; Rate 62 g/ha, 0 to 100 scale): 15
Plant response rating, LS canarygrass (littleseed canarygrass; Rate 125 g/ha, 0 to 100 scale): 20
Plant response rating, LS canarygrass (littleseed canarygrass; [5]): 60
Plant response rating, Purple nutsedge (purple nutsedge; Rate 140 g/ha): 0
Plant response rating, Purple nutsedge (purple nutsedge; Rate 280 g/ha): 0
Plant response rating, Purple nutsedge (purple nutsedge; Rate 560 g/ha): 10
Plant response rating, Purple nutsedge (purple nutsedge; Rate 1120 g/ha): 10
Plant response rating, Common poppy (common poppy; Rate 62 g/ha, 0 to 100 scale): 0
Plant response rating, Comnion poppy (common poppy; 0 to 100 scale): 0
Plant response rating, Common poppy (common poppy; [5]): 5
Plant response rating, Lambsquarters (lambsquarters [1]; Rate 140 g/ha): 0
Plant response rating, Lambsquarters (lambsquarters [1]; Rate 280 g/ha): 0
Plant response rating, Lambsquarters (lambsquarters [1]; Rate 560 g/ha): 40
Plant response rating, Lambsquarters (lambsquarters [1]; Rate 1120 g/ha): 40
Plant response rating, Redroot pigweed (redroot pigweed; [6]): 100
Plant response rating, Redroot pigweed (redroot pigweed; [7]): 100
Plant response rating, Redroot pigweed (redroot pigweed; Rate 250 g/ha, 0 to 100 scale): 100
Plant response rating, Deadnettle (deadnettle; [6]): 50
Plant response rating, Deadnettle (deadnettle; [7]): 60
Plant response rating, Deadnettle (deadnettle; Rate 250 g/ha, 0 to 100 scale): 85
Plant response rating, Sugar beet (sugar beet; Rate 62 g/ha, 0 to 100 scale): 10
Plant response rating, Sugar beet (sugar beet; Rate 125 g/ha, 0 to 100 scale): 10
Plant response rating, Sugar beet (sugar beet; [5]): 40
Plant response rating, Windgrass (windgrass [2]): 85
Plant response rating, Scentless chamo (scentless chamomile; Rate 62 g/ha, 0 to 100 scale): 10
Plant response rating, Scentless chamo (scentless chamomile; Rate 125 g/ha, 0 to 100 scale): 0
Plant response rating, Scentless chamo (scentless chamomile; [5]): 10
Plant response rating Wild poinsettia (wild poinsettia; Rate 140 g/ha): 0
Plant response rating Wild poinsettia (wild poinsettia; Rate 280 g/ha): 15
Plant response rating Wild poinsettia (wild poinsettia; Rate 560 g/ha): 40
Plant response rating Wild poinsettia (wild poinsettia; Rate 1120 g/ha): 80
Plant response rating, Lambsquarters (lambsquarters [3]; Rate 62 g/ha, 0 to 100 scale): 15
Plant response rating, Lambsquarters (lambsquarters [3]; Rate 125 g/ha, 0 to 100 scale): 15
Plant response rating, Lambsquarters (lambsquarters [3]; [5]): 5
Plant response rating Fall panicum (fall panicum; Rate 140 g/ha): 50
Plant response rating Fall panicum (fall panicum; Rate 280 g/ha): 60
Plant response rating Fall panicum (fall panicum; Rate 560 g/ha): 85
Plant response rating Fall panicum (fall panicum; Rate 1120 g/ha): 85
Plant response rating, Windgrass (windgrass [4]; [6]): 100
Plant response rating, Windgrass (windgrass [4]; [7]): 100
Plant response rating, Surinam grass (surinam grass; Rate 140 g/ha): 10
Plant response rating, Surinam grass (surinam grass; Rate 280 g/ha): 70
Plant response rating, Surinam grass (surinam grass; Rate 560 g/ha): 80
Plant response rating, Surinam grass (surinam grass; Rate 1120 g/ha): 95

CCn1c(=O)on(C(=O)N(c2ccc(F)cc2F)C(C)C)c1=O [Compound 116]
Plant response rating, LS canarygrass (littleseed canarygrass; Rate 62 g/ha, 0 to 100 scale): 10
Plant response rating, LS canarygrass (littleseed canarygrass; Rate 125 g/ha, 0 to 100 scale): 30
Plant response rating, LS canarygrass (littleseed canarygrass; [5]): 40
Plant response rating, LS canarygrass (littleseed canarygrass; [8]): 50
Plant response rating, Purple nutsedge (purple nutsedge; Rate 140 g/ha): 0
Plant response rating, Purple nutsedge (purple nutsedge; Rate 280 g/ha): 0
Plant response rating, Purple nutsedge (purple nutsedge; Rate 560 g/ha): 10
Plant response rating, Purple nutsedge (purple nutsedge; Rate 1120 g/ha): 10
Plant response rating, Common poppy (common poppy; Rate 62 g/ha, 0 to 100 scale): 30
Plant response rating, Comnion poppy (common poppy; 0 to 100 scale): 0
Plant response rating, Common poppy (common poppy; [5]): 0
Plant response rating, Common poppy (common poppy; [8]): 10
Plant response rating, Lambsquarters (lambsquarters [1]; Rate 140 g/ha): 0
Plant response rating, Lambsquarters (lambsquarters [1]; Rate 560 g/ha): 0
Plant response rating, Lambsquarters (lambsquarters [1]; Rate 1120 g/ha): 0
Plant response rating, Redroot pigweed (redroot pigweed; [7]): 100
Plant response rating, Redroot pigweed (redroot pigweed; Rate 250 g/ha, 0 to 100 scale): 100
Plant response rating, Redroot pigweed (redroot pigweed; [9]): 100
Plant response rating, Deadnettle (deadnettle; [7]): 95
Plant response rating, Deadnettle (deadnettle; Rate 250 g/ha, 0 to 100 scale): 80
Plant response rating, Deadnettle (deadnettle; [9]): 80
Plant response rating, Sugar beet (sugar beet; Rate 62 g/ha, 0 to 100 scale): 0
Plant response rating, Sugar beet (sugar beet; Rate 125 g/ha, 0 to 100 scale): 0
Plant response rating, Sugar beet (sugar beet; [5]): 0
Plant response rating, Sugar beet (sugar beet; [8]): 0
Plant response rating, Windgrass (windgrass [2]): 70
Plant response rating, Scentless chamo (scentless chamomile; Rate 62 g/ha, 0 to 100 scale): 50
Plant response rating, Scentless chamo (scentless chamomile; Rate 125 g/ha, 0 to 100 scale): 0
Plant response rating, Scentless chamo (scentless chamomile; [5]): 0
Plant response rating, Scentless chamo (scentless chamomile; [8]): 40
Plant response rating Wild poinsettia (wild poinsettia; Rate 140 g/ha): 0
Plant response rating Wild poinsettia (wild poinsettia; Rate 280 g/ha): 0
Plant response rating Wild poinsettia (wild poinsettia; Rate 560 g/ha): 0
Plant response rating, Lambsquarters (lambsquarters [3]; Rate 62 g/ha, 0 to 100 scale): 20
Plant response rating, Lambsquarters (lambsquarters [3]; Rate 125 g/ha, 0 to 100 scale): 30
Plant response rating, Lambsquarters (lambsquarters [3]; [5]): 0
Plant response rating, Lambsquarters (lambsquarters [3]; [8]): 0
Plant response rating Fall panicum (fall panicum; Rate 140 g/ha): 10
Plant response rating Fall panicum (fall panicum; Rate 280 g/ha): 60
Plant response rating Fall panicum (fall panicum; Rate 560 g/ha): 85
Plant response rating Fall panicum (fall panicum; Rate 1120 g/ha): 90
Plant response rating, Windgrass (windgrass [4]; [7]): 100
Plant response rating, Windgrass (windgrass [4]; [9]): 100
Plant response rating, Surinam grass (surinam grass; Rate 140 g/ha): 0
Plant response rating, Surinam grass (surinam grass; Rate 280 g/ha): 0
Plant response rating, Surinam grass (surinam grass; Rate 1120 g/ha): 90

CCOC(=O)Cn1c(=O)on(C(=O)N(c2ccc(F)cc2)C(C)C)c1=O [Compound 128]
Plant response rating, Velvetleaf (velvetleaf; Postemergence, Rate 1000 g/ha): 0
Plant response rating, Velvetleaf (velvetleaf; Pre-emergence, Rate 2000 g/ha): 0
Plant response rating, Morningglory (morningglory; Postemergence, Rate 1000 g/ha): 0
Plant response rating, Morningglory (morningglory; Pre-emergence, Rate 2000 g/ha): 0

Cc1ccccc1Cn1c(=O)on(C(=O)N(c2ccc(Cl)cc2)C(C)C)c1=O [Compound 136]
Plant response rating, Velvetleaf (velvetleaf; Postemergence, Rate 1000 g/ha): 2
Plant response rating, Velvetleaf (velvetleaf; Pre-emergence, Rate 2000 g/ha): 0
Plant response rating, Morningglory (morningglory; Postemergence, Rate 1000 g/ha): 9
Plant response rating, Morningglory (morningglory; Pre-emergence, Rate 2000 g/ha): 0
